ChEMBL document CHEMBL4507292 (2021)

Experiments:
[1] = molecular target: Sodium-dependent serotonin transporter (Homo sapiens, UniProt P31645); experiment: Transporter, Serotonin (5- Hydroxytryptamine) (SERT) Eurofins-Panlabs radioligand binding assay; parameters: ligand concentration 0.15 nM, non-specific ligand with concentration 10 µM Imipramine, incubation time 3 h, incubation temperature 4 °C
[2] = molecular target: Macrophage metalloelastase (Homo sapiens) (UniProt P39900); experiment: Peptidase, Matrix Metalloproteinase-12 (MMP-12) Eurofins-Panlabs enzyme assay; conditions: Compound concentration 10.0 uM
[3] = molecular target: Mitogen-activated protein kinase 14 (Homo sapiens, UniProt Q16539); experiment: NanoBRET (SGC Frankfurt) (MAPK14)
[4] = molecular target: Somatostatin receptor type 2 (Homo sapiens) (UniProt P30874); experiment: Somatostatin sst2 Eurofins-Panlabs radioligand binding assay; parameters: ligand concentration 0.1 nM; conditions: Compound concentration 10.0 uM
[5] = molecular target: Glutamate NMDA receptor (Rattus norvegicus) (UniProt P35439+Q00959+Q00960+Q00961+Q62645+Q8VHN2+Q9R1M7); conditions: Compound concentration 10.0 uM
[6] = molecular target: Adenosine receptor A1 (Homo sapiens) (UniProt P30542); conditions: Compound concentration 10.0 uM
[7] = molecular target: Beta-3 adrenergic receptor (Homo sapiens, UniProt P13945); experiment: Inhibition of Adrenergic beta3 at compound concentration of 10.0 uM in the Eurofins-Panlabs radioligand binding assay (Eurofins_assay_204200); parameters: ligand concentration 0.5 nM, non-specific ligand with concentration 1000 uM Alprenolol, incubation time 90 min, incubation temperature 25 C
[8] = molecular target: Neprilysin (Homo sapiens) (UniProt P08473); experiment: Peptidase, Metalloproteinase, Neutral Endopeptidase Eurofins-Panlabs enzyme assay; conditions: Compound concentration 10.0 uM
[9] = molecular target: Insulin receptor (Homo sapiens, UniProt P06213); conditions: Rattus norvegicus; Compound concentration 10.0 uM
[10] = molecular target: D(1B) dopamine receptor (Homo sapiens, UniProt P21918); experiment: Dopamine D5 Eurofins-Panlabs radioligand binding assay; conditions: concentration not given here
[11] = molecular target: Peroxisome proliferator-activated receptor alpha (Homo sapiens) (UniProt Q07869); experiment: PPARalpha Eurofins-Panlabs radioligand binding assay; conditions: Compound concentration 10.0 uM
[12] = molecular target: Prostaglandin G/H synthase 2 (Homo sapiens, UniProt P35354); experiment: Inhibition of Cyclooxygenase COX-2 at compound concentration of 10.0 uM in the Eurofins-Panlabs enzyme assay (Eurofins_assay_118010); parameters: substrate with concentration 0.3 uM Arachidonic acid, incubation time 15 min, incubation temperature 37 C
[13] = organism: Homo sapiens
[14] = molecular target: Caspase-8 (Homo sapiens) (UniProt Q14790); experiment: Peptidase, CASP8 (Caspase 8) Eurofins-Panlabs enzyme assay; conditions: concentration not given here
[15] = molecular target: T1, D(4) dopamine receptor (Homo sapiens) (UniProt P21917); experiment: Dopamine D4.4 Eurofins-Panlabs radioligand binding assay; parameters: ligand concentration 1.2 nM; conditions: Compound concentration 10.0 uM
T1 sequence (whole entry): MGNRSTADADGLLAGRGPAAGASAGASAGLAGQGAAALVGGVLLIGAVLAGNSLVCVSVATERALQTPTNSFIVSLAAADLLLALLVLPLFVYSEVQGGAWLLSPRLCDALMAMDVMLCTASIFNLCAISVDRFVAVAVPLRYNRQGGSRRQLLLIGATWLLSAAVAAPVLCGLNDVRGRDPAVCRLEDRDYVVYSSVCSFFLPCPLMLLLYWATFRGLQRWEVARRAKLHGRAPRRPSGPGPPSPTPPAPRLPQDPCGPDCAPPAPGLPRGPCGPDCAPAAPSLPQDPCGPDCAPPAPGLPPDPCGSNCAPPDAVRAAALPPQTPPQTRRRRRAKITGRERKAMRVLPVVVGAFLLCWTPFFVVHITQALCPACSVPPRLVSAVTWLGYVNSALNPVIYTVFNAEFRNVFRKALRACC

[16] = molecular target: Kappa-type opioid receptor (Homo sapiens, UniProt P41145)
[17] = (§1) Inhibition of Phosphodiesterase PDE4 at compound concentration of 10.0 uM in the Eurofins-Panlabs enzyme assay (Eurofins_assay_154000); format: protein assay, Homo sapiens; parameters: substrate with concentration 1.01 uM [3 H]cAMP + cAMP, incubation time 20 min, incubation temperature 25 C
[18] = organism: Homo sapiens; experiment: as §1; format: protein assay; parameters: substrate with concentration 1.01 uM [3 H]cAMP + cAMP, incubation time 20 min, incubation temperature 25 C
[19] = molecular target: T2, Alpha-2A adrenergic receptor (Homo sapiens) (UniProt P08913); experiment: Adrenergic alpha2A Eurofins-Panlabs radioligand binding assay; parameters: ligand concentration 1 nM, non-specific ligand with concentration 10 µM WB-4101, incubation time 60 min, incubation temperature 25 °C
T2 sequence (whole entry): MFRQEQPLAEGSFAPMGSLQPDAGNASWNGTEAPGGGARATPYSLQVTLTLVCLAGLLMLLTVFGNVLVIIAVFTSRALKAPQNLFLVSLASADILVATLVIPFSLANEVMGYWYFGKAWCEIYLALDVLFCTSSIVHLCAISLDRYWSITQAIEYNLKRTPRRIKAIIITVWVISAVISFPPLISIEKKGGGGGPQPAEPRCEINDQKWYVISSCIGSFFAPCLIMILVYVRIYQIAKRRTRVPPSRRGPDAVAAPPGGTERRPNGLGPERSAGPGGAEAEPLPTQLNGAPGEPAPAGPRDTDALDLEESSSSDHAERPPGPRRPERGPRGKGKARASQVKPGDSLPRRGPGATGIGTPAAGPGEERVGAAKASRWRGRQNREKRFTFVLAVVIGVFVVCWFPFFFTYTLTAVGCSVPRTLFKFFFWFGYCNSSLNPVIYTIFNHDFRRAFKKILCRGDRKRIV

[20] = molecular target: cGMP-specific 3',5'-cyclic phosphodiesterase (Homo sapiens, UniProt O76074)
[21] = molecular target: L-type calcium channel, benzothiazepine site (Cav1.2 alpha-1C) (Homo sapiens, UniProt Q13936); experiment: Inhibition of Calcium Channel L-Type, Benzothiazepine at 10 µM in the Eurofins-Panlabs radioligand binding assay (Eurofins_assay_214510); parameters: ligand concentration 2 nM, non-specific ligand with concentration 10 µM Diltiazem, incubation time 3h, incubation temperature 4 °C; conditions: male, Wistar, rat, rat whole brain preparation, probe [3H] Diltiazem, 2 nM; compound concentration 10 uM; target entry is the homologue from another species
[22] = Compound concentration 100.0 uM

Sequence of Kappa-type opioid receptor (P41145 whole entry): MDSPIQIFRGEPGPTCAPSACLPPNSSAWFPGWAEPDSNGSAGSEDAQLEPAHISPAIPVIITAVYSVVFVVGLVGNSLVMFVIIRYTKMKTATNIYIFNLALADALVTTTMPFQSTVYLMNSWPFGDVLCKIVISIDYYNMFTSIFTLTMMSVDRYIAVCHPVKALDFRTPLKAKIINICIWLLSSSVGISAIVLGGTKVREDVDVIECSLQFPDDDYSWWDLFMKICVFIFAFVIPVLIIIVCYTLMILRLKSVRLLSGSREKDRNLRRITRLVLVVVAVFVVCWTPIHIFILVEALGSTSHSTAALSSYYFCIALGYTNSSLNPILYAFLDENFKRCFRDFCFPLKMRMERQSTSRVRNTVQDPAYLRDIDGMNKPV
Sequence of Beta-3 adrenergic receptor (P13945 whole entry): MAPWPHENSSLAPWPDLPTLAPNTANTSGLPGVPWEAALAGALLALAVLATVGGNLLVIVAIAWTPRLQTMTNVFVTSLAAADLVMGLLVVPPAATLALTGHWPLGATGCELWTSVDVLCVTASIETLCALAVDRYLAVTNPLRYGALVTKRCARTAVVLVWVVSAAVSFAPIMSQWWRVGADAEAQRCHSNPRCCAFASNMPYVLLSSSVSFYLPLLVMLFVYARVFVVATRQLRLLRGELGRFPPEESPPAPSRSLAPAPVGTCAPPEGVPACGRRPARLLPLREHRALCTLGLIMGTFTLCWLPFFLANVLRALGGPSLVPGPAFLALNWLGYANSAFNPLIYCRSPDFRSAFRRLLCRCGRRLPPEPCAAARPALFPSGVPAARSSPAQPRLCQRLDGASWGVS
Sequence of D(1B) dopamine receptor (P21918 whole entry): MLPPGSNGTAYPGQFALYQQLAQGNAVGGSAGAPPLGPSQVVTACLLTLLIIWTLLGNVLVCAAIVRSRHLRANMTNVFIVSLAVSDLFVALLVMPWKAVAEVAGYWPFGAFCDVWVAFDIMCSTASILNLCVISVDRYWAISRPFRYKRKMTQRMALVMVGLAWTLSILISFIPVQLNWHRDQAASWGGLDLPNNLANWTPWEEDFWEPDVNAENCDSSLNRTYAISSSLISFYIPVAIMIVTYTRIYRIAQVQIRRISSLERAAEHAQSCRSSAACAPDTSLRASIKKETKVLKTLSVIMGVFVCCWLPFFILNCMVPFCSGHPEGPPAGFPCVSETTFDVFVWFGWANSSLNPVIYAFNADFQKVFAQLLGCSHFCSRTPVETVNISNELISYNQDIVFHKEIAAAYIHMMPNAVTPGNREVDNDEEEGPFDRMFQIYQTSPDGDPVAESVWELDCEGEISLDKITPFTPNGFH
Sequence of Macrophage metalloelastase (Homo sapiens) (P39900 106-470 limits assumed): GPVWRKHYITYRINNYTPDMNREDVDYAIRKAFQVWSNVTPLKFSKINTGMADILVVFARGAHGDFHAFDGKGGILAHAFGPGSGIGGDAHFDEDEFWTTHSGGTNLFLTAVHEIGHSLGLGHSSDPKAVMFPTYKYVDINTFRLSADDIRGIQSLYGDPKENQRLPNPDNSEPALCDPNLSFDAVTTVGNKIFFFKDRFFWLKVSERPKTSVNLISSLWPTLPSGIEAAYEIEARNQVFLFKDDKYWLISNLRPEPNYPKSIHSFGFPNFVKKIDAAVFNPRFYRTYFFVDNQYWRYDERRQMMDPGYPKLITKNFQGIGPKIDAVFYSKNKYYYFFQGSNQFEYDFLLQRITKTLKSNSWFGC
Sequence of Peroxisome proliferator-activated receptor alpha (Homo sapiens) (Q07869 whole entry): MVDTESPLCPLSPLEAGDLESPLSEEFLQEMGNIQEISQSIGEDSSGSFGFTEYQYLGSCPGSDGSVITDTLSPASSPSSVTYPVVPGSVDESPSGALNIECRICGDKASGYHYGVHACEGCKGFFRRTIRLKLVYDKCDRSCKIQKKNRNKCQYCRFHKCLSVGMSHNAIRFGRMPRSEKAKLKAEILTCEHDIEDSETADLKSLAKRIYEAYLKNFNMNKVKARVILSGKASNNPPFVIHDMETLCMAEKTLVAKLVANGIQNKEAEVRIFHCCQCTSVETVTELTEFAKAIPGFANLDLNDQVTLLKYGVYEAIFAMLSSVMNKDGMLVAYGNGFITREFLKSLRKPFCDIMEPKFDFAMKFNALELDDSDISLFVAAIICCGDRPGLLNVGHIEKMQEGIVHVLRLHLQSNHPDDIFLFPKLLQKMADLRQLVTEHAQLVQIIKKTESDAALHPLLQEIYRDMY
Sequence of L-type calcium channel, benzothiazepine site (Cav1.2 alpha-1C) (Q13936 whole entry): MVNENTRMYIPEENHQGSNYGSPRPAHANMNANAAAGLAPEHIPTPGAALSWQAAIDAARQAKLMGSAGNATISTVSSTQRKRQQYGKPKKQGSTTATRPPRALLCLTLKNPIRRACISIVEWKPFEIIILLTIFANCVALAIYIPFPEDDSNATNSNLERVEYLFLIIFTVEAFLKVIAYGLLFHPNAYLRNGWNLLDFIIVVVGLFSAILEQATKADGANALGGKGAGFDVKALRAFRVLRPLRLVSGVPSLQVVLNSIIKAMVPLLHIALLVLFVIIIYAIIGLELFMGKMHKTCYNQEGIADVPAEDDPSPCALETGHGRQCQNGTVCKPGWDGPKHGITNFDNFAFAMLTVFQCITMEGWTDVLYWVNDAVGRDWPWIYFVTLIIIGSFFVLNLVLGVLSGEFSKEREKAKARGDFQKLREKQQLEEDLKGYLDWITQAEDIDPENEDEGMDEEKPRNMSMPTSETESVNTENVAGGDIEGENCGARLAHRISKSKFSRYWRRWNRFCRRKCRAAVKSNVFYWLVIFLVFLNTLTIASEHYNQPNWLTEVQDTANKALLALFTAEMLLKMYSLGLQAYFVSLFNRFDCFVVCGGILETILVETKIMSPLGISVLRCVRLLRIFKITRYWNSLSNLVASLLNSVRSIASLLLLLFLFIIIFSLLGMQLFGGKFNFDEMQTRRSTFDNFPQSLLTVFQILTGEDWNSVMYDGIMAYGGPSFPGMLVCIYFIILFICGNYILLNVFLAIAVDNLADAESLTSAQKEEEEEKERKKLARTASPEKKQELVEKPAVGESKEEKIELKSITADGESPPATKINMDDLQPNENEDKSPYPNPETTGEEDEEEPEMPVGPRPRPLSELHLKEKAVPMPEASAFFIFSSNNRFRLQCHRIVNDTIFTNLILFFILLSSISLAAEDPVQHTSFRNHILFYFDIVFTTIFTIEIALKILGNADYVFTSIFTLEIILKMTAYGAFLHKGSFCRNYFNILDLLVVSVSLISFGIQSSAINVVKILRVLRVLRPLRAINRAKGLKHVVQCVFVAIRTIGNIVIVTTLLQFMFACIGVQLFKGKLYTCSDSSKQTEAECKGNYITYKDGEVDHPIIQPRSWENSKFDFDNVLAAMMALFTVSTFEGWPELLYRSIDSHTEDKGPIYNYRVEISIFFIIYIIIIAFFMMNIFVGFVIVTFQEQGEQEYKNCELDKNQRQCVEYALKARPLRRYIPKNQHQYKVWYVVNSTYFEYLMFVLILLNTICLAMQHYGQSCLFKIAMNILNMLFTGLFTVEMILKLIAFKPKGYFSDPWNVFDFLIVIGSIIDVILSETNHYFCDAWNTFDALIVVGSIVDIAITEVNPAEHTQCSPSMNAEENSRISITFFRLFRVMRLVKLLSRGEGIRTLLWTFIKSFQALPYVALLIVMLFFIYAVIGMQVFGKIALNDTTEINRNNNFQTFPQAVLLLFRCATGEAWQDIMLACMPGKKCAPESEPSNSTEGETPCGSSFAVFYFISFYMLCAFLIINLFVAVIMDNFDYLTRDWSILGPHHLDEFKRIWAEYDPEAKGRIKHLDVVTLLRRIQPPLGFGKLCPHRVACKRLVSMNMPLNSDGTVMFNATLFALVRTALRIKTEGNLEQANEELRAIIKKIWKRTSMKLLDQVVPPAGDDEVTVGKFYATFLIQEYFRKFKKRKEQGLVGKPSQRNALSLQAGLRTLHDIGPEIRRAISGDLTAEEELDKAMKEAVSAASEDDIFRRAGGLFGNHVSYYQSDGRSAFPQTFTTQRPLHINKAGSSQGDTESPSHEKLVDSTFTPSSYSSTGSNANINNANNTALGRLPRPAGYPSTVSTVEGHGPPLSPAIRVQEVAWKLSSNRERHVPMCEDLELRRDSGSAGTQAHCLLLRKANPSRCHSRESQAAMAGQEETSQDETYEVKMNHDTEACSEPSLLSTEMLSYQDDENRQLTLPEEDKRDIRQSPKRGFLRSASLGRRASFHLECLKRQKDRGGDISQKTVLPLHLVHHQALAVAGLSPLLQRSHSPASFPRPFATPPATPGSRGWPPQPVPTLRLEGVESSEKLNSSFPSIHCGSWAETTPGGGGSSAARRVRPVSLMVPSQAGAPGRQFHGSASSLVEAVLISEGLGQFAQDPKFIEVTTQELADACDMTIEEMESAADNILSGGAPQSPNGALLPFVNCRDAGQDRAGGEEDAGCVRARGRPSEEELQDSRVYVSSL
Sequence of Mitogen-activated protein kinase 14 (Q16539 whole entry): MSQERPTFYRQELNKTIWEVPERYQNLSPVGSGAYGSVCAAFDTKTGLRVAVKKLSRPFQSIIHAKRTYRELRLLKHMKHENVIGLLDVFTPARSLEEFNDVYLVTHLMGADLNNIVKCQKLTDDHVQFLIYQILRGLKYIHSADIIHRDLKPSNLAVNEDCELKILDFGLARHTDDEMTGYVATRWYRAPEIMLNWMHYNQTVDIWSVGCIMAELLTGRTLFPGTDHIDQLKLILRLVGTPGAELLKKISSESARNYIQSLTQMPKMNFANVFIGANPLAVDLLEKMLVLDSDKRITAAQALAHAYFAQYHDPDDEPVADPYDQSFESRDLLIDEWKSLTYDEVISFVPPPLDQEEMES
Sequence of Somatostatin receptor type 2 (Homo sapiens) (P30874 whole entry): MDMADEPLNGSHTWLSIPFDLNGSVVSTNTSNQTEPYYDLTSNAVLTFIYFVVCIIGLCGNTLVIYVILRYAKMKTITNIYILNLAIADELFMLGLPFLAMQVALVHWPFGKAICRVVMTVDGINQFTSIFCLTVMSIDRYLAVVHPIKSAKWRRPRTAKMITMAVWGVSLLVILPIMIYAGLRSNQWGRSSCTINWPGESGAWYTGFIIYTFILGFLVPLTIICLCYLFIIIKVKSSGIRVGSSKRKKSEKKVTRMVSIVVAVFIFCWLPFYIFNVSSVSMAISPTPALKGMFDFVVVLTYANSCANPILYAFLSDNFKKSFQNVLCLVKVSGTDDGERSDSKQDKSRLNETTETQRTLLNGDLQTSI

## O=C(O)c1cc(-c2ccc(C3CCNCC3)cc2)c2ccc(-c3ccc(C(F)(F)F)cc3)cc2c1 [PPTN]
[1]
  IC50: 9.47 µM
  Ki: 5.03 µM
[1]; Compound concentration 0.01 uM
  inhibition: -7%
[1]; Compound concentration 0.1 uM
  inhibition: -9%
[1]; Compound concentration 1.0 uM
  inhibition: -6%
[1]; Compound concentration 10.0 uM
  inhibition: 58%
[2]
  inhibition: -1%
[3]
  IC50: > 20 µM (not active)
[4]
  inhibition: 29%
[5]
  inhibition: 1%
[6]
  inhibition: -2%
[7]
  IC50: 9.61 µM
  Ki: 7.2 µM
[8]
  inhibition: 1%
[9]
  inhibition: -8%
[10]
  inhibition: 7%
[11]
  inhibition: 15%
[12]
  IC50: 8.71 µM
[13]; Compound concentration 0.01 uM
  inhibition: -3%
[13]; Compound concentration 0.1 uM
  inhibition: -3%
[13]; Compound concentration 1.0 uM
  inhibition: -8%
[13]; Compound concentration 10.0 uM
  inhibition: 67%
[14]
  inhibition: 7%
[15]
  inhibition: -8%
[16]; Compound concentration 0.1 uM
  inhibition: -1%
[16]; Compound concentration 1.0 uM
  inhibition: 1%
[16]; Compound concentration 10.0 uM
  inhibition: 63%
[17]
  IC50: 100 µM
[18]; Compound concentration 0.1 uM
  inhibition: -6%
[18]; Compound concentration 1.0 uM
  inhibition: 0%
[18]; Compound concentration 10.0 uM
  inhibition: 24%
[18]; [22]
  inhibition: 49%
[19]; Compound concentration 0.01 uM
  inhibition: 9%
[19]; Compound concentration 0.1 uM
  inhibition: 13%
[19]; Compound concentration 1.0 uM
  inhibition: 11%
[19]; Compound concentration 10.0 uM
  inhibition: 78%
[20]; Compound concentration 0.1 uM
  inhibition: -3%
[20]; Compound concentration 1.0 uM
  inhibition: -8%
[20]; Compound concentration 10.0 uM
  inhibition: 22%
[20]; [22]
  inhibition: 72%
[21]
  inhibition at 3 h, 10 µM: 11% (not active)
